From patent US10294234B2, “HIV inhibitor compounds” (priority 2017, dated 2019)
pEC50: −log10 of the molar value. Like-named read-outs stand apart in the source and are kept apart here.

What was measured:
[1] = system: HIV-1 (IIIB) in MT-4 cells; experiment: MT-4 HIV assay; type: cell-based; conditions: HIV-1 (IIIB), MT-4 cells, 5 days, Cell Titer Glo, read-out: EC50
Outline: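 MT-4 cells infected with HIV-1 IIIB (1:250 stock dilution) were incubated with 1:3 serially diluted compounds in RPMI with 10% FBS for 5 days at 37 °C. Cell Titer Glo luminescence was the readout. Plates included mock-infected wells, no-drug wells and 5 uM AZT controls.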

[2] = microsomes
Procedure: Liver Microsomal Stability Protocol
Test compounds and one control compound (verapamil) were tested in 3 different species in duplicate sets.
Test compound concentration: 1 uM; Protein concentration: 0.5 mg/mL (for dog, rat, and human liver microsomes); Cofactor: NADPH-Regenerating system (NRS) solution; Time-points: 2, 12, 25, 45, and 65 minutes.
Reaction composition (in each incubation well) contains:
After plates were vortexed, they were centrifuged for 30 minutes to remove proteins. About 100 μL supernatant was removed to a new plate and diluted with 150 μL water. About 20 μL of the mixture was injected into LC/MS/MS system to monitor the compound's response. In vitro measured t1/2 was used to calculate Clint values.

[3] = Human immunodeficiency virus 1, MT4, 120 h

In the case of `COC(=O)N[C@H](C(=O)NN(Cc1c(F)cc(-c2ccn(CC(F)F)n2)cc1F)C[C@H](O)[C@H](Cc1ccc(C#Cc2ccc(N3CC4CCC(C3)N4C3COC3)nc2)cc1)NC(=O)[C@@H](NC(=O)OC)C(C)(C)C(F)(F)F)C(C)(C)C` [Example 6, methyl ((5S,8S,9S,14S)-11-(4-(1-(2,2-difluoroethyl)-1H-pyrazol-3-yl)-2,6-difluorobenzyl)-9-hydroxy-15,15-dimethyl-8-(4-((6-(8-(oxetan-3-yl)-3,8-diazabicyclo[3.2.1]octan-3-yl)pyridin-3-yl)ethynyl)benzyl)-3,6,13-trioxo-5-(1,1,1-trifluoro-2-methylpropan-2-yl)-2-oxa-4,7,11,12-tetraazahexadecan-14-yl)carbamate], the pEC50 [1, 3] was 8.45, the “Human Pred Cl.” value [2] was under 0.11 L/H/kg and the “Rat. Pred. Cl.” value [2] was 0.22 L/H/kg.
For `COC(=O)N[C@H](C(=O)NN(Cc1c(F)cc(-c2ccn(CC(F)F)n2)cc1F)C[C@H](O)[C@H](Cc1ccc(C#Cc2cnc(N3CC4CCC(C3)N4C3COC3)nc2)cc1)NC(=O)[C@@H](NC(=O)OC)C(C)(C)C(F)(F)F)C(C)(C)C` [Example 7, methyl ((5S,8S,9S,14S)-11-(4-(1-(2,2-difluoroethyl)-1H-pyrazol-3-yl)-2,6-difluorobenzyl)-9-hydroxy-15,15-dimethyl-8-(4-((2-(8-(oxetan-3-yl)-3,8-diazabicyclo[3.2.1]octan-3-yl)pyrimidin-5-yl)ethynyl)benzyl)-3,6,13-trioxo-5-(1,1,1-trifluoro-2-methylpropan-2-yl)-2-oxa-4,7,11,12-tetraazahexadecan-14-yl)carbamate], the pEC50 [1, 3] was 8.44, the “Human Pred Cl.” value [2] was under 0.11 L/H/kg and the “Rat. Pred. Cl.” value [2] was 0.21 L/H/kg.
In the case of `COC(=O)N[C@H](C(=O)N[C@@H](Cc1ccc(C#Cc2ccc(N3CC4CCC(C3)N4C3COC3)nc2)cc1)[C@@H](O)CN(Cc1c(F)cc(-c2nnc(C)o2)cc1F)NC(=O)[C@@H](NC(=O)OC)C(C)(C)C(F)(F)F)C(C)(C)C(F)(F)F` [Example 11, Methyl ((5S,8S,9S,14S)-11-(2,6-difluoro-4-(5-methyl-1,3,4-oxadiazol-2-yl)benzyl)-16,16,16-trifluoro-9-hydroxy-15,15-dimethyl-8-(4-((6-(8-(oxetan-3-yl)-3,8-diazabicyclo[3.2.1]octan-3-yl)pyridin-3-yl)ethynyl)benzyl)-3,6,13-trioxo-5-(1,1,1-trifluoro-2-methylpropan-2-yl)-2-oxa-4,7,11,12-tetraazahexadecan-14-yl)carbamate], the pEC50 [1, 3] was 8.43, the “Human Pred Cl.” value [2] was 0.18 L/H/kg and the “Rat. Pred. Cl.” value [2] was 0.18 L/H/kg.
Work on `COC(=O)N[C@H](C(=O)N[C@@H](Cc1ccc(C#Cc2ccc(N3CC4CCC(C3)N4C3COC3)nc2)cc1)[C@@H](O)CN(Cc1c(F)cc(-c2ccccn2)cc1Cl)NC(=O)[C@@H](NC(=O)OC)C(C)(C)CF)C(C)(C)CF` [Example 234, methyl ((5S,8S,9S,14S)-11-(2-chloro-6-fluoro-4-(pyridin-2-yl)benzyl)-16-fluoro-5-(1-fluoro-2-methylpropan-2-yl)-9-hydroxy-15,15-dimethyl-8-(4-((6-(8-(oxetan-3-yl)-3,8-diazabicyclo[3.2.1]octan-3-yl)pyridin-3-yl)ethynyl)benzyl)-3,6,13-trioxo-2-oxa-4,7,11,12-tetraazahexadecan-14-yl)carbamate] yielded a pEC50 [1, 3] of 8.60.
For `COC(=O)N[C@H](C(=O)N[C@@H](Cc1ccc(C#Cc2ccc(N3CC4CCC(C3)N4C3COC3)nc2)cc1)[C@@H](O)CN(Cc1ccc(-c2ccc(F)cn2)cc1F)NC(=O)[C@@H](NC(=O)OC)C(C)(C)C(F)(F)F)C(C)(C)C(F)(F)F` [Example 235, methyl ((5S,8S,9S,14S)-16,16,16-trifluoro-11-(2-fluoro-4-(5-fluoropyridin-2-yl)benzyl)-9-hydroxy-15,15-dimethyl-8-(4-((6-(8-(oxetan-3-yl)-3,8-diazabicyclo[3.2.1]octan-3-yl)pyridin-3-yl)ethynyl)benzyl)-3,6,13-trioxo-5-(1,1,1-trifluoro-2-methylpropan-2-yl)-2-oxa-4,7,11,12-tetraazahexadecan-14-yl)carbamate], the pEC50 [1, 3] was 7.78.
In the case of `COC(=O)N[C@H](C(=O)N[C@@H](Cc1ccc(C#Cc2ccc(N3CC4CCC(C3)N4CC(F)F)nc2)cc1)[C@@H](O)CN(Cc1c(F)cc(-c2ccccn2)cc1Cl)NC(=O)[C@@H](NC(=O)OC)C(C)(C)CF)C(C)(C)CF` [Example 238, methyl ((5S,8S,9S,14S)-11-(2-chloro-6-fluoro-4-(pyridin-2-yl)benzyl)-8-(4-((6-(8-(2,2-difluoroethyl)-3,8-diazabicyclo[3.2.1]octan-3-yl)pyridin-3-yl)ethynyl)benzyl)-16-fluoro-5-(1-fluoro-2-methylpropan-2-yl)-9-hydroxy-15,15-dimethyl-3,6,13-trioxo-2-oxa-4,7,11,12-tetraazahexadecan-14-yl)carbamate], the pEC50 [1, 3] was 7.91.
Work on `COC(=O)N[C@H](C(=O)N[C@@H](Cc1ccc(C#Cc2ccc(N3CC4CCC(C3)N4C(C)C)nc2)cc1)[C@@H](O)CN(Cc1c(F)cc(-c2ccccn2)cc1F)NC(=O)[C@@H](NC(=O)OC)C(C)(C)C(F)(F)F)C(C)(C)C(F)(F)F` [Example 240, methyl ((5S,8S,9S,14S)-11-(2,6-difluoro-4-(pyridin-2-yl)benzyl)-16,16,16-trifluoro-9-hydroxy-8-(4-((6-(8-isopropyl-3,8-diazabicyclo[3.2.1]octan-3-yl)pyridin-3-yl)ethynyl)benzyl)-15,15-dimethyl-3,6,13-trioxo-5-(1,1,1-trifluoro-2-methylpropan-2-yl)-2-oxa-4,7,11,12-tetraazahexadecan-14-yl)carbamate] yielded a pEC50 [1, 3] of 8.25.
With `CCN1C2CCC1CN(c1ccc(C#Cc3ccc(C[C@H](NC(=O)[C@@H](NC(=O)OC)C(C)(C)C(F)(F)F)[C@@H](O)CN(Cc4c(F)cc(-c5ccccn5)cc4F)NC(=O)[C@@H](NC(=O)OC)C(C)(C)C(F)(F)F)cc3)cn1)C2` [Example 241, methyl ((5S,8S,9S,14S)-11-(2,6-difluoro-4-(pyridin-2-yl)benzyl)-8-(4-((6-(8-ethyl-3,8-diazabicyclo[3.2.1]octan-3-yl)pyridin-3-yl)ethynyl)benzyl)-16,16,16-trifluoro-9-hydroxy-15,15-dimethyl-3,6,13-trioxo-5-(1,1,1-trifluoro-2-methylpropan-2-yl)-2-oxa-4,7,11,12-tetraazahexadecan-14-yl)carbamate] the pEC50 [1, 3] was 8.18.
In the case of `COC(=O)N[C@H](C(=O)N[C@@H](Cc1ccc(C#Cc2ccc(N3CC4CCC(C3)N4C)nc2)cc1)[C@@H](O)CN(Cc1c(F)cc(-c2ccccn2)cc1F)NC(=O)[C@@H](NC(=O)OC)C(C)(C)C(F)(F)F)C(C)(C)C(F)(F)F` [Example 242, methyl ((5S,8S,9S,14S)-11-(2,6-difluoro-4-(pyridin-2-yl)benzyl)-16,16,16-trifluoro-9-hydroxy-15,15-dimethyl-8-(4-((6-(8-methyl-3,8-diazabicyclo[3.2.1]octan-3-yl)pyridin-3-yl)ethynyl)benzyl)-3,6,13-trioxo-5-(1,1,1-trifluoro-2-methylpropan-2-yl)-2-oxa-4,7,11,12-tetraazahexadecan-14-yl)carbamate], the pEC50 [1, 3] was 8.46.
`COC(=O)N[C@H](C(=O)NN(Cc1ccc(-c2cnn(C(F)F)c2)cc1)C[C@H](O)[C@H](Cc1ccc(C#Cc2ccc(N3CC4CCC(C3)N4C3COC3)nc2)cc1)NC(=O)[C@@H](NC(=O)OC)C(C)(C)C(F)(F)F)C(C)(C)C` [Example 243, methyl ((5S,8S,9S,14S)-11-(4-(1-(difluoromethyl)-1H-pyrazol-4-yl)benzyl)-9-hydroxy-15,15-dimethyl-8-(4-((6-(8-(oxetan-3-yl)-3,8-diazabicyclo[3.2.1]octan-3-yl)pyridin-3-yl)ethynyl)benzyl)-3,6,13-trioxo-5-(1,1,1-trifluoro-2-methylpropan-2-yl)-2-oxa-4,7,11,12-tetraazahexadecan-14-yl)carbamat] showed a pEC50 [1, 3] of 8.27.
Work on `COC(=O)N[C@H](C(=O)N[C@@H](Cc1ccc(C#Cc2ccc(N3CC4CCC(C3)N4C3COC3)nc2)cc1)[C@@H](O)CN(Cc1ccc(-c2ccccn2)cc1F)NC(=O)[C@@H](NC(=O)OC)C(C)(C)C(F)(F)F)C(C)(C)C(F)(F)F` [Example 245, Methyl ((5S,8S,9S,14S)-16,16,16-trifluoro-11-(2-fluoro-4-(pyridin-2-yl)benzyl)-9-hydroxy-15,15-dimethyl-8-(4-((6-(8-(oxetan-3-yl)-3,8-diazabicyclo[3.2.1]octan-3-yl)pyridin-3-yl)ethynyl)benzyl)-3,6,13-trioxo-5-(1,1,1-trifluoro-2-methylpropan-2-yl)-2-oxa-4,7,11,12-tetraazahexadecan-14-yl)carbamate] yielded a pEC50 [1, 3] of 8.44.
With “methyl ((5S,8S,9S,14S)-11-(2-chloro-6-fluoro-(pyridin-2-yl)benzyl)-16-fluoro-5-(1-fluoro-2-methylpropan-2-yl)-9-hydroxy-15,15-dimethyl-3,6,13-trioxo-8-(4-((6-(8-(2,2,2-trifluoroethyl)-3,8-diazabicyclo[3.2.1]octan-3-yl)pyridin-3-yl)ethynyl)benzyl)-2-oxa-4,7,11,12-tetraazahexadecan-14-yl)carbamate [Example 244]” the pEC50 [1] was 7.71.
